Reference: publication PMC9421655, “Novel Antagonist of the Type 2 Lysophosphatidic Acid Receptor (LPA2), UCM-14216, Ameliorates Spinal Cord Injury in Mice” (Journal of Medicinal Chemistry, 2022)
Read-outs that look alike come from different tables or passages of the source.

What was measured:
[1] = target: T1, LPA3 (Homo sapiens, UniProt Q9UBY5); assay: cell-based
T1 sequence (Q9UBY5 1-353): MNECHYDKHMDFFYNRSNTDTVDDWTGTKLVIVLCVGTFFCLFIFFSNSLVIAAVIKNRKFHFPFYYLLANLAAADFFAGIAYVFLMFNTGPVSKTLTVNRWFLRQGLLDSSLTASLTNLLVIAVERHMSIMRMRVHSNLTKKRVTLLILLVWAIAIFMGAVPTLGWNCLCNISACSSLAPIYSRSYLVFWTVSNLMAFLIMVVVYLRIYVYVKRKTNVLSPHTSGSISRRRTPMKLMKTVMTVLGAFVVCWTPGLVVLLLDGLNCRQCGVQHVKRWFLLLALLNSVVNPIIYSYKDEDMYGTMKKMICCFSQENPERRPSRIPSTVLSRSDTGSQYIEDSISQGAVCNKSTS
Protocol: (§1) Cells stably expressing the corresponding LPA1–3 receptor were grown as described previously.[18] Changes in intracellular calcium levels were measured by using the fluorescent calcium sensitive dye Fluo-4 NW (Invitrogen). RH7777 cells or B103 cells were plated on poly-D-lysine or collagen coated, respectively, black-wall clear-bottom 96-well plates (Corning) at a density of 50 000 cells/well and cultured overnight. The culture medium was then replaced with 100 μL of Fluo-4 NW dye loading solution containing 2.5 μM of probenecid and incubated for 30 min at 37 °C followed by an additional 30 min at rt. […] Fluorescence changes were registered in a FluoStar Optima instrument (BMG Labtech) at 525 nm using an excitation wavelength of 494 nm. […] The data presented are from two to four independent experiments carried out in triplicate or quadruplicate. Dose–response curves were generated and IC50 values calculated by nonlinear regression analysis using Prism software version 5 (GraphPad Software Inc., San Diego, CA, USA).

[2] = target: T2, LPA2 (Homo sapiens, UniProt Q9HBW0); details: cited from earlier work
T2 construct: expressed in transfected cells

[3] = target: T3, LPA1 (Homo sapiens, UniProt Q92633); set-up: expressed in transfected cells; details: cited from earlier work
[4] = target: T2, LPA2; assay: Ca2+ mobilization assay, agonist activity at LPA2; format: cell-based; details: 10 μM compound
Protocol: The agonist activity at LPA2 receptors was determined at 10 μM concentration for all final compounds as previously described.[18]
Figure S1. Representative snapshots showing the lack of significant agonist activity of selected compounds. (A) 1; (B) 13; (C) 54; and (D) Ki16425. (E) Graphs show the agonist activity induced […]
stably expressing LPA2 receptor were plated on collagen-coated black-wall clear-bottom 96-well plates (Corning) at a density of 50000 cells/well and cultured overnight. The culture medium was then replaced with Fluo-4 NW dye loading solution containing 2.5 µM of probenecid and incubated […]
for 30 minutes at 37 °C followed by an additional 30 minutes at rt. Fluorescence changes were registered in a FluoStar Optima instrument (BMG Labtech) at 525 nm using an excitation wavelength of 494 nm. Each well was monitored for 240 s. 20 µL of the test compound from a 6x stock solution in assay buffer were added after 120 s of starting the measurement. Ca2+ transient increase was quantified by calculating the difference between maximum and baseline values for each […]
Graphs shown are representative of two to three independent experiments.

[5] = target: T3, LPA1; assay: cell-based; set-up: Emax: dose or concentration left out as unconfirmed
Protocol: as §1

[6] = target: T1, LPA3; set-up: expressed in transfected cells; details: cited from earlier work
[7] = target: T2, LPA2; assay: Ca2+ mobilization assay, antagonist activity at LPA2; format: cell-based; details: for IC50: antagonism of 10 μM LPA, mean ± s.e.m.
Protocol: as §1
Figure S2. Dose response curves for compounds 13, 44, 53, 54, and 55. B103 cells stably expressing LPA2 receptor were incubated with different concentrations of the compound under study and […]
Curves were generated with PRISM software version 5 (GraphPad Software Inc, San Diego, CA, USA) using nonlinear regression analysis. Each data point corresponds to the mean±SEM of two to four independent experiments carried out in triplicate or quadruplicate.

[8] = Metabolic stability in human liver microsomes; format: in vitro ADME; details: male, liver microsomes (pooled), 1 mg/mL protein, NADPH, 37 °C, read-out: stability (t1/2, min) HLMs
Protocol: (§2) Reactions were initiated by the addition of a suspension of mouse liver microsomes (MLMs) (male CD-1 mice pooled, Sigma-Aldrich) or human liver microsomes (HLMs) (male human pooled, Sigma-Aldrich), respectively, at a final protein concentration of 1 mg/mL. […] Aliquots of 100 μL were quenched at time zero and at seven points ranging to 2 h (MLM) or 4 h (HLM) by pouring into 100 μL of ice-cold acetonitrile. […] The relative disappearance of the compound under study over the course of the incubation was monitored by HPLC-MS using SIM mode. Concentrations were quantified by measuring the area under the peak ([M + H]^+) normalized with an internal standard and converted to the percentage of compound remaining, using the time zero peak area value as 100%. The natural logarithm of the remaining percentage versus time data for each compound was fit to a linear regression, and the slope was used to calculate the degradation half-life (t1/2).

[9] = Parallel artificial membrane permeability assay (PAMPA); format: in vitro ADME; details: PBS pH 7.4, 5 h, rt
Protocol: These studies were carried out as previously described with minor modifications.[41],[42] The assessment of the membrane permeability of synthesized compounds and propranolol and metoprolol as reference compounds was performed in a commercially available 96-well Corning Gentest precoated PAMPA plate system (Cultek S.L.U., Spain). Prior to use, the precoated PAMPA plate system was warmed to rt for 30 min and 300 μL of 200 μM solution of tested compound in 2% DMSO in PBS (pH 7.4) were added into wells in the receiver (donor) plate. Then, 200 μL of PBS were added into wells in the filter (acceptor) plate. The filter plate was placed on the receiver plate by slowly lowering the precoated PAMPA plate until it sits on the receiver plate. The assembly was incubated at rt for 5 h, and then buffer samples were collected carefully from each plate. The final concentrations of compound in both donor and acceptor wells were analyzed by HPLC-MS and quantification was estimated by using the peak area integration normalized with an internal standard. Permeability value of the compounds was calculated using the following formula: P (cm/s) = {−ln[1 – CA(t)/Ceq]}/[A(1/VD + 1/VA)t], where A = filter area (0.3 cm^2), VD = donor well volume (0.3 mL), VA = acceptor well volume (0.2 mL), t = incubation time (s), CA(t) = compound concentration (μM) in the acceptor well at time t, CD(t) = compound concentration (μM) in donor well at time t, and Ceq = [CD(t)VD + CA(t)VA]/(VD + VA). Assays were performed in duplicate, and the compound was tested in two different plates on different days.

[10] = Metabolic stability in mouse liver microsomes; format: in vitro ADME; details: male, CD-1, mouse, liver microsomes (pooled), 1 mg/mL protein, NADPH, 37 °C, read-out: stability (t1/2, min) MLMs
Protocol: as §2

[11] = maximum blockade of activation induced by 10 μM LPA (18:1) at 10 μM compound, N.E. = no effect at 10 μM

T3 sequence (Q92633 whole entry, species assumed): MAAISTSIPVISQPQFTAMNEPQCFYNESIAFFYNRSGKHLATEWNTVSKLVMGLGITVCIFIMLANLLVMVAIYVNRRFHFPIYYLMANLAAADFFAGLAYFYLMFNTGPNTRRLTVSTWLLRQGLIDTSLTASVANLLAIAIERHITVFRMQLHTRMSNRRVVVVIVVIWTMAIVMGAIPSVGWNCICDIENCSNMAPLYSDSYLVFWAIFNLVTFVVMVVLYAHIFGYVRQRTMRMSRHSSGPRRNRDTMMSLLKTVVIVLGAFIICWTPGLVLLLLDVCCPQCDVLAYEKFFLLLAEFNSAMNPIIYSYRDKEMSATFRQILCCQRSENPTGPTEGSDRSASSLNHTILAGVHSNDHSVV
T2 sequence (Q9HBW0 whole entry, species assumed): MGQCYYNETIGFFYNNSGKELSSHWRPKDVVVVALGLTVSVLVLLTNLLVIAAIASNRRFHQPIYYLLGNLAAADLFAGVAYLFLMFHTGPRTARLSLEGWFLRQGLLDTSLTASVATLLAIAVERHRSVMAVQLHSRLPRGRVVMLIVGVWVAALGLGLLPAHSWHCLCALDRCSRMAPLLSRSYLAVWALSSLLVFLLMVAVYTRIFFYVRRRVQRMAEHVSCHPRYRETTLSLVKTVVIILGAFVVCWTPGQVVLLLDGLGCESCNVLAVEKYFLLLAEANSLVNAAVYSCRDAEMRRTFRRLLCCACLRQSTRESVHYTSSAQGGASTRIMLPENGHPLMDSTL

Compound | Emax ([1]; read-out: Emax (%) LPA3) | IC50 ([1]; read-out: IC50 (μM) LPA3, antagonism of 10 μM LPA, mean ± s.e.m.) | IC50 [2] | IC50 [3] | agonist activity at LPA2 receptor [4] | Emax ([5]; read-out: Emax (%) LPA1) | IC50 ([5]; read-out: IC50 (μM) LPA1, antagonism of 10 μM LPA, mean ± s.e.m.) | IC50 [6] | Emax at 10 µM [7] | IC50 [7] | half-life at 5 μM [8] | Emax (%) LPA3 [1, 11] | P (cm/s), permeability value ([9]; 200 μM) | Papp at 5 h, 200 μM ([9]; pH 7.4, PAMPA, read-out: P (cm/s), permeability value) | melting point | Emax (%) LPA1 [5, 11] | half-life at 1 μM [10]
Cc1noc(-c2ccc(CSCCC(=O)O)cc2)c1NC(=O)OC(C)c1ccccc1Cl (centres unmarked) [Ki16425, reference compound] | 99 ± 3% | 1.6 µM | 6500 nM | 340 nM | lack | 97 ± 4% | 0.8 µM | 930 nM | 92 ± 3% | 1.2 µM | – | – | – | – | – | – | –
Cc1[nH]nc(-c2ccc(OCC(=O)O)cc2O)c1Oc1ccc(Cl)cc1Cl [Compound 13, {4-[4-(2,4-Dichlorophenoxy)-5-methyl-1H-pyrazol-3-yl]-3-hydroxyphenoxy}acetic Acid] | – | – | – | – | lack | – | – | – | 84 ± 3% | 5.5 µM | ~60 min | N.E. | 0.1 × 10^–6 cm/s | 0.11 ×10⁻⁶ cm/s | > 196 °C (dec.) | N.E. and N.E. ^c | ~16 min
